26 compounds from patent publication US20240262826A1, “WILD TYPE KIT INHIBITORS” (Blueprint Medicines Corporation, priority 2022, published 2024) can be followed below.

The test addresses wild type c-kit (Homo sapiens (Human), UniProt P10721). Nature of the test: PathScan phospho c-kit (Tyr719) sandwich ELISA in SCF-stimulated M-07e cells (pKIT assay). The note with it: ELISA assay (values not marked *). It is filed as cell-based. Summed up:
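Serum- and GM-CSF-starved M-07e cells (4 h) pretreated 60 min at 37 °C with an 8-point compound series in duplicate (0.25% DMSO), then stimulated with human SCF (500 ng/mL stock) 10 min at room temperature. Lysate c-kit Tyr719 phosphorylation quantified by sandwich ELISA with TMB read-out; IC50 from 4-parameter logistic fit.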
A general note: ELISA stands for enzyme-linked immunosorbent assay.

What is called IC50 is the concentration that gives 50% inhibition. High values mean lower potency, low ones higher potency.

Sequence of wild type c-kit (P10721 26-976): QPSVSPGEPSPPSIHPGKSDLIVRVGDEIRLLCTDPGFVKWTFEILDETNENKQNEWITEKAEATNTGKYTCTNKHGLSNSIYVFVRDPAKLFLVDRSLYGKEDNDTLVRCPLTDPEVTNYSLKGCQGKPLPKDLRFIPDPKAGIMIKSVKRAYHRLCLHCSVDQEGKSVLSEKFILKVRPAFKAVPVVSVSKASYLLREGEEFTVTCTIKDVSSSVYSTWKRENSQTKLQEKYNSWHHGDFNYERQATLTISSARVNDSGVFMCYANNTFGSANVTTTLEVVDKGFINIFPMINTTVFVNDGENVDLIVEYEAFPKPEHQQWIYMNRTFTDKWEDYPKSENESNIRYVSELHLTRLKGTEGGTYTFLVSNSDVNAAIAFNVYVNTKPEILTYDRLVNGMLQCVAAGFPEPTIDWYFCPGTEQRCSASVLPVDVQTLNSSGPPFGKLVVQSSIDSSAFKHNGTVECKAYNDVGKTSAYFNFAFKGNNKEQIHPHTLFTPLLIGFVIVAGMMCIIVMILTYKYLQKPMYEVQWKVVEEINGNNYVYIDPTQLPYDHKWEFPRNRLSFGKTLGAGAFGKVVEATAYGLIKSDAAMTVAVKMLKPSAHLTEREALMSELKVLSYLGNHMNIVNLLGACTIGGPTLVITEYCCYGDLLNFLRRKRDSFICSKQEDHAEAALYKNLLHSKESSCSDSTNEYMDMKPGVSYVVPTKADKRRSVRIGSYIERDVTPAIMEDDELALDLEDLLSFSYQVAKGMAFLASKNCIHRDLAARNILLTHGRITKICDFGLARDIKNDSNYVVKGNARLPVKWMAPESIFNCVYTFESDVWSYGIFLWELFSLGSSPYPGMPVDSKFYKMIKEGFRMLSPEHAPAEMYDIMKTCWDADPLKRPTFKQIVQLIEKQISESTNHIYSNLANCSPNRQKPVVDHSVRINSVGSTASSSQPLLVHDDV

With `Cc1cc(F)c(-c2nnn(C3CC3)n2)cc1NC(=O)c1cnn2ccc(-c3cn(C[C@@H](O)C(C)(C)O)nc3C3CC3)cc12` [Example 259, (R)-5-(3-cyclopropyl-1-(2,3-dihydroxy-3-methylbutyl)-1H-pyrazol-4-yl)-N-(5-(2-cyclopropyl-2H-tetrazol-5-yl)-4-fluoro-2-methylphenyl)pyrazolo[1,5-a]pyridine-3-carboxamide], inhibition was half-maximal at 0.4 nM (IC50).
The same measure for `COC(=O)N1CC(n2nnc(-c3ccc(C)c(NC(=O)c4cnn5ccc(N6CCN7CCC[C@@H]7C6)cc45)c3)n2)C1` [Example 75, methyl (R)-3-(5-(3-(5-(hexahydropyrrolo[1,2-a]pyrazin-2(1H)-yl)pyrazolo[1,5-a]pyridine-3-carboxamido)-4-methylphenyl)-2H-tetrazol-2-yl)azetidine-1-carboxylate]: 9.6 nM.
`Cc1ccc(-c2nnn(C3CC3)n2)cc1NC(=O)c1cnn2ccc(-c3cnn(CCN4CCN(C)CC4)c3)cc12` [Example 219, N-(5-(2-cyclopropyl-2H-tetrazol-5-yl)-2-methylphenyl)-5-(1-(2-(4-methylpiperazin-1-yl)ethyl)-1H-pyrazol-4-yl)pyrazolo[1,5-a]pyridine-3-carboxamide] registered a concentration for half-maximal inhibition (IC50) of 1.1 nM.
Turning to `Cc1ccc(-n2nnc(C3CN(S(C)(=O)=O)C3)n2)cc1NC(=O)c1cnn2ccccc12` [Example 190], the IC50 was found to be 22.8 nM.
The same measure for `COC(=O)N1CC(n2nnc(-c3ccc(C)c(NC(=O)c4cnn5ccc(N6CCO[C@@H](CO)C6)cc45)c3)n2)C1` [Example 91, methyl (R)-3-(5-(3-(5-(2-(hydroxymethyl)morpholino)pyrazolo[1,5-a]pyridine-3-carboxamido)-4-methylphenyl)-2H-tetrazol-2-yl)azetidine-1-carboxylate]: 50.9 nM.
Compound `Cc1ccc(-c2nnn(C3CC3)n2)cc1NC(=O)c1cnn2ccc(-c3cnn(CC(C)(C)O)c3)cc12` [Example 242, N-(5-(2-cyclopropyl-2H-tetrazol-5-yl)-2-methylphenyl)-5-(1-(2-hydroxy-2-methylpropyl)-1H-pyrazol-4-yl)pyrazolo[1,5-a]pyridine-3-carboxamide] registered a 50% inhibitory concentration (IC50) of 0.5 nM.
Next, `COCCNc1ccn2ncc(C(=O)Nc3cc(-c4nnn(C5CC(F)(F)C5)n4)c(F)cc3C)c2c1` [Example 105, N-(5-(2-(3,3-difluorocyclobutyl)-2H-tetrazol-5-yl)-4-fluoro-2-methylphenyl)-5-((2-methoxyethyl)amino)pyrazolo[1,5-a]pyridine-3-carboxamide]: 3.5 nM; `Cc1nn(CC(C)(C)O)cc1-c1ccn2ncc(C(=O)Nc3cc(-c4nnn(C5CC5)n4)ccc3Cl)c2c1` [Example 250, N-(2-chloro-5-(2-cyclopropyl-2H-tetrazol-5-yl)phenyl)-5-(1-(2-hydroxy-2-methylpropyl)-3-methyl-1H-pyrazol-4-yl)pyrazolo[1,5-a]pyridine-3-carboxamide]: 0.4 nM; `Cn1nnc(-c2ccc(Cl)c(NC(=O)c3cnn4ccc(-c5cnn(CC(C)(C)O)c5)cc34)c2)n1` [Example 210, N-(2-chloro-5-(2-methyl-2H-tetrazol-5-yl)phenyl)-5-(1-(2-hydroxy-2-methylpropyl)-1H-pyrazol-4-yl)pyrazolo[1,5-a]pyridine-3-carboxamide]: 7.4 nM.
`COC(=O)N1CC(n2nnc(-c3ccc(C)c(NC(=O)c4cnn5ccc(N6CCO[C@H](CO)C6)cc45)c3)n2)C1` [Example 68, methyl (S)-3-(5-(3-(5-(2-(hydroxymethyl)morpholino)pyrazolo[1,5-a]pyridine-3-carboxamido)-4-methylphenyl)-2H-tetrazol-2-yl)azetidine-1-carboxylate] had an IC50 of 61.3 nM.
Take `[2H]C([2H])([2H])N1CCN(c2ccn3ncc(C(=O)Nc4cc(-n5ncc(C6CN(C(=O)OC)C6)n5)ccc4C)c3c2)CC1` [Example 82, methyl 3-(2-(4-methyl-3-(5-(4-(methyl-d3)piperazin-1-yl)pyrazolo[1,5-a]pyridine-3-carboxamido)phenyl)-2H-1,2,3-triazol-4-yl)azetidine-1-carboxylate]: half-maximal inhibition (IC50) was put at 23.4 nM.
Next, `COC(=O)N1CC(n2nnc(-c3ccc(Cl)c(NC(=O)c4cnn5ccccc45)c3)n2)C1` [Example 192]: 10.6 nM; `O=C(Nc1cc(-c2nnn(C3CC(F)(F)C3)n2)c(C2CC2)cc1Cl)c1cnn2ccc(N3CCOCC3)cc12` [Example 117, N-(2-chloro-4-cyclopropyl-5-(2-(3,3-difluorocyclobutyl)-2H-tetrazol-5-yl)phenyl)-5-morpholinopyrazolo[1,5-a]pyridine-3-carboxamide]: 52.7 nM.
With `Cc1ccc(-c2nnn([C@H]3C[C@H](C(F)(F)F)C3)n2)cc1NC(=O)c1cnn2ccc(NCCO)cc12` [Example 121, 5-((2-hydroxyethyl)amino)-N-(2-methyl-5-(2-((1r,3r)-3-(trifluoromethyl)cyclobutyl)-2H-tetrazol-5-yl)phenyl)pyrazolo[1,5-a]pyridine-3-carboxamide or 5-((2-hydroxyethyl)amino)-N-(2-methyl-5-(2-((1s,3s)-3-(trifluoromethyl)cyclobutyl)-2H-tetrazol-5-yl)phenyl)pyrazolo[1,5-a]pyridine-3-carboxamide], the IC50 was 11.9 nM.
Next, `Cc1ccc(-c2nnn(C3CC3)n2)cc1NC(=O)c1cnn2ccc(-c3cnn(C[C@H]4CNCCO4)c3)cc12` [Example 229, (R)-N-(5-(2-cyclopropyl-2H-tetrazol-5-yl)-2-methylphenyl)-5-(1-(morpholin-2-ylmethyl)-1H-pyrazol-4-yl)pyrazolo[1,5-a]pyridine-3-carboxamide]: 0.7 nM; `COCCNc1ccn2ncc(C(=O)Nc3cc(-c4nnn(C[C@H]5CC5(F)F)n4)ccc3C)c2c1` (single isomer, unassigned) [Example 124, (R)-N-(5-(2-((2,2-difluorocyclopropyl)methyl)-2H-tetrazol-5-yl)-2-methylphenyl)-5-((2-methoxyethyl)amino)pyrazolo[1,5-a]pyridine-3-carboxamide or (S)-N-(5-(2-((2,2-difluorocyclopropyl)methyl)-2H-tetrazol-5-yl)-2-methylphenyl)-5-((2-methoxyethyl)amino)pyrazolo[1,5-a]pyridine-3-carboxamide]: 1.8 nM.
The same measure for `CCn1nnc(-c2ccc(C)c(NC(=O)c3cnn4ccccc34)c2)n1` [Example 14, N-(5-(2-ethyl-2H-tetrazol-5-yl)-2-methylphenyl)pyrazolo[1,5-a]pyridine-3-carboxamide]: 28.6 nM.
Consider `COC(=O)N1CC(n2nnc(-c3ccc(C)c(NC(=O)c4cnn5ccc(OCCO)cc45)c3)n2)C1` [Example 199, methyl 3-(5-(3-(5-(2-hydroxyethoxy)pyrazolo[1,5-a]pyridine-3-carboxamido)-4-methylphenyl)-2H-tetrazol-2-yl)azetidine-1-carboxylate], for which the IC50 turned out to be 29.6 nM.
The same measure for `Cc1ccc(-c2nnn(CC3CC4(CC4)CO3)n2)cc1NC(=O)c1cnn2ccccc12` (centres unmarked) [Example 10, N-(5-(2-((5-oxaspiro[2.4]heptan-6-yl)methyl)-2H-tetrazol-5-yl)-2-methylphenyl)pyrazolo[1,5-a]pyridine-3-carboxamide]: 3.8 nM; for `Nc1ccn2ncc(C(=O)Nc3cc(-c4nnn(CC5CC5(F)F)n4)ccc3Cl)c2c1` (centres unmarked) [Example 27, 5-amino-N-(2-chloro-5-(2-((2,2-difluorocyclopropyl)methyl)-2H-tetrazol-5-yl)phenyl)pyrazolo[1,5-a]pyridine-3-carboxamide]: 19.3 nM.
Regarding `Cc1nnn(-c2ccc(C)c(NC(=O)c3cnn4ccc(Nc5cn[nH]c5)cc34)c2)n1` [Example 231, 5-((1H-pyrazol-4-yl)amino)-N-(2-methyl-5-(5-methyl-2H-tetrazol-2-yl)phenyl)pyrazolo[1,5-a]pyridine-3-carboxamide], the concentration for half-maximal inhibition (IC50) stood at 3.6 nM.
The same measure for `Cc1ccc(-c2nnn(C3CC(F)(F)C3)n2)cc1NC(=O)c1cnn2ccc(N3CC[C@@](C)(O)C3)cc12` (single isomer, unassigned) [Example 86, (S)—N-(5-(2-(3,3-difluorocyclobutyl)-2H-tetrazol-5-yl)-2-methylphenyl)-5-(3-hydroxy-3-methylpyrrolidin-1-yl)pyrazolo[1,5-a]pyridine-3-carboxamide or (R)—N-(5-(2-(3,3-difluorocyclobutyl)-2H-tetrazol-5-yl)-2-methylphenyl)-5-(3-hydroxy-3-methylpyrrolidin-1-yl)pyrazolo[1,5-a]pyridine-3-carboxamide]: 8.6 nM; for `COC(=O)N1CC(c2cnn(-c3ccc(C)c(NC(=O)c4cnn5cc(N6CCOCC6)ccc45)c3)n2)C1` [Example 160, methyl 3-(2-(4-methyl-3-(6-morpholinopyrazolo[1,5-a]pyridine-3-carboxamido)phenyl)-2H-1,2,3-triazol-4-yl)azetidine-1-carboxylate]: 14.9 nM; for `Cc1nnn(-c2ccc(C)c(NC(=O)c3cnn4ccc(-c5c(C)nn(CC(C)(C)O)c5C)cc34)c2)n1` [Example 244, 5-(1-(2-hydroxy-2-methylpropyl)-3,5-dimethyl-1H-pyrazol-4-yl)-N-(2-methyl-5-(5-methyl-2H-tetrazol-2-yl)phenyl)pyrazolo[1,5-a]pyridine-3-carboxamide]: 0.4 nM.
For `Cc1cc(F)c(-c2nnn(C3CC3)n2)cc1NC(=O)c1cnn2ccc(-c3cn(C[C@H](O)C(C)(C)O)nc3C3CC3)cc12` [Example 258, (S)-5-(3-cyclopropyl-1-(2,3-dihydroxy-3-methylbutyl)-1H-pyrazol-4-yl)-N-(5-(2-cyclopropyl-2H-tetrazol-5-yl)-4-fluoro-2-methylphenyl)pyrazolo[1,5-a]pyridine-3-carboxamide], the 50% inhibitory concentration (IC50) is 0.4 nM.
Next, `Cc1ccc(-c2nnn(CCOC(C)C)n2)cc1NC(=O)c1cnn2ccccc12` [Example 11, N-(5-(2-(2-isopropoxyethyl)-2H-tetrazol-5-yl)-2-methylphenyl)pyrazolo[1,5-a]pyridine-3-carboxamide]: 2.5 nM.
